The values that follow come from patent US5646148A, “HIV protease inhibitors useful for the treatment of AIDS” (Merck & Co., Inc., priority 1995, dated 1997).

The subject of one experiment is HIV-1. Description: Cell spread assay: inhibition of the spread of HIV in cell culture (MT-4 T-lymphoid cells, p24). It counts as cell-based. The conditions noted are these: Human immunodeficiency virus 1, 72 h, MT-4 T-lymphoid cells infected with HIV-1 (wild-type), 24 h preincubation, then 3 additional days with inhibitor, read-out: CIC95, inhibitor concentration which reduced the spread of infection by at least 95%. The procedure:
Inhibition of the spread of HIV in cell culture was measured according to Nunberg, J. H. et al., J. Virol. 65, 4887 (1991). In this assay, MT-4 T-lymphoid cells were infected with HIV-1 (wild-type, unless otherwise indicated) by using a predetermined inoculum, and cultures were incubated for 24 h. At this time, ≤1% of the cells were positive by indirect immunofluorescence. Cells were then extensively washed and distributed into 96-well culture dishes. Serial twofold dilutions of inhibitor were added to the wells, and cultures were continued for 3 additional days. At 4 days postinfection, 100% of the cells in control cultures were infected. HIV-1 p24 accumulation was directly correlated with virus spread. The cell culture inhibitory concentration was defined as the inhibitor concentration in nanomoles/liter which reduced the spread of infection by at least 95%, or CIC95. The CIC95 for compound A is 25 nM.
INHIBITION OF VIRUS SPREAD
A. Preparation of HIV-infected MT-4 cell Suspension. […]
The concentration of HIV p24 antigen is measured by an enzyme immunoassay, described as follows. Aliquots of p24 antigen to be measured are added to microwells coated with a monoclonal antibody specific for HIV core antigen. […]

The target in a further experiment is T1, HIV protease (Human immunodeficiency virus type 1 group M subtype B, UniProt P04585).
T1 construct: the protease expressed in Eschericia coli; made in house; host or cells: Escherichia coli
Description: Assay for Inhibition of Microbial Expressed HIV Protease. It counts as biochemical. The conditions noted are these: protease expressed in Eschericia coli; peptide substrate Val-Ser-Gln-Asn-(betanapthyl)Ala-Pro-Ile-Val; 50 mM Na acetate, pH 5.5, 30° C., 1 hour; HPLC. On the procedure:
Inhibition studies of the reaction of the protease expressed in Eschericia coli with a peptide substrate [Val-Ser-Gln-Asn-(betanapthyl)Ala-Pro-Ile-Val, 0.5 mg/mL at the time the reaction is initiated] were in 50 mM Na acetate, pH 5.5, at 30° C. for 1 hour. Various concentrations of inhibitor in 1.0 μl DMSO were added to 25 μl of the peptide solution in water. The reaction is initiated by the addition of 15 μl of 0.33 nM protease (0.11 ng) in a solution of 0.133M Na acetate pH 5.5 and 0.1% bovine serum albumin. The reaction was quenched with 160 μl of 5% phosphoric acid. Products of the reaction were separated by HPLC (VYDAC wide pore 5 cm C-18 reverse phase, acetonitrile gradient, 0.1% phosphoric acid). The extent of inhibition of the reaction was determined from the peak heights of the products.

Regarding `CC(C)(C)NC(=O)C1CN(Cc2cnc3occc3c2)CCN1CC(O)CC(Cc1ccccc1)C(=O)NC1c2ccccc2CC1O` [Compound A, N-(2(R)-hydroxy-1(S)-indanyl)-2(R)-phenylmethyl-4(S)-hydroxy-5-(1-(4-(3-furo[2,3-b]pyridylmethyl)-2(S)-N'-(t-butylcarboxamido)-piperazinyl))pentaneamide], the IC95 in the experiment on HIV-1 was 25 nM. At HIV protease, this compound displayed a half-inhibitory concentration (IC50) of approximately 0.27 nM.

For orientation: IC50 means the midpoint of a concentration-inhibition curve. The low end stands for greater potency in that assay, the high end for weaker potency in that assay.
